Reference: patent US9090535B2, “Hydroxylated tricyclic compounds” (Nektar Therapeutics, priority 2010, dated 2015)
Counter-ions that a name gives are not always drawn. Like-named read-outs stand apart in the source and are kept apart here.

Key:
[1] = target: T1, cloned human hERG channel (Homo sapiens, UniProt Q12809); assay: In vitro effect on hERG channels, whole-cell patch clamp in HEK cells; assay type: cell-based; details: 37 °C, read-out: IhERG, 0.1 HZ, IC50
T1 construct: expressed in transfected cells; host or cells: HEK cells
T1 sequence (Q12809 whole entry): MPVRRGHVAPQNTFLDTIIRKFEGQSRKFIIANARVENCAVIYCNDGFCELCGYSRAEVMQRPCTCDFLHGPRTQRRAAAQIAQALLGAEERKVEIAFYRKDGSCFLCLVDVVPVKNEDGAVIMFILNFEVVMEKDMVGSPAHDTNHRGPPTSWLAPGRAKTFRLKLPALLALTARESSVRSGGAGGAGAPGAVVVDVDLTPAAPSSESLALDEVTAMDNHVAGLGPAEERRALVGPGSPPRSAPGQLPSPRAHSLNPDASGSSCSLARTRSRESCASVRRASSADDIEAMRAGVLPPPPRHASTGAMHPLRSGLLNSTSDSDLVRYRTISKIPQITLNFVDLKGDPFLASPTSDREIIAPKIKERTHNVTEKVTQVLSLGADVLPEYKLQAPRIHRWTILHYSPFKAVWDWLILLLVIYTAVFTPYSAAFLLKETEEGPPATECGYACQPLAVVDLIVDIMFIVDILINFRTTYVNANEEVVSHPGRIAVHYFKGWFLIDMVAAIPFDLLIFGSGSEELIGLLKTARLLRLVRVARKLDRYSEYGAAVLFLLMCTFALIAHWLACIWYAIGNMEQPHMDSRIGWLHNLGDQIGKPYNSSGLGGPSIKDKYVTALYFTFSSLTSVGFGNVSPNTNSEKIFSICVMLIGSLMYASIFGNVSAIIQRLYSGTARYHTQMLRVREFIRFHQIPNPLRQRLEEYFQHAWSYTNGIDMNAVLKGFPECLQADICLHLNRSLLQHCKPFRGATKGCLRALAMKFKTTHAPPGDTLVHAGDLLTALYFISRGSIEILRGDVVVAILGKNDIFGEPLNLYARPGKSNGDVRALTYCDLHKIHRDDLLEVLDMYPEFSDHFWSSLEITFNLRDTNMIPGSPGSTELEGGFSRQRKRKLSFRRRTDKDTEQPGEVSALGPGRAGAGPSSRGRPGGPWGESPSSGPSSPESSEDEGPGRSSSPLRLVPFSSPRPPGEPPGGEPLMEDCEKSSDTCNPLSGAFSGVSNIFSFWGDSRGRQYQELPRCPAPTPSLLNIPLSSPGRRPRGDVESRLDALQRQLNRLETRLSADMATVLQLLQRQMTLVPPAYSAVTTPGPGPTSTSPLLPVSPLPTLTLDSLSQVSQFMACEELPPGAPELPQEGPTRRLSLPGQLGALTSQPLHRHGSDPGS
Description: Electrophysiological measurements of hERG current were made in vitro to assess the hERG block produced by certain compounds disclosed herein. hERG currents were measured in HEK cells expressing the cloned human hERG channel using the whole-cell variant of the patch clamp method. Experiments were performed at 37±1° C. An Axopatch 1-B amplifier (Axon Instruments, Foster City, Calif.) was used for whole-cell voltage clamping. Creation of voltage clamp pulses and data acquisition was controlled by a PC running pClamp software (version 9.2, Axon Instruments). After rupture of the cell membrane (entering whole-cell mode), current kinetics and amplitudes were allowed to stabilize for 3-5 minutes as the cell was dialyzed with internal solution and paced at 0.1 Hz. Cells were depolarized to +10 mV for 500 ms from a holding potential of −75 mV and peak hERG current was measured as the maximum outward deflection of the tail current elicited upon return to −40 mV (pacing rate=0.1 Hz). Four concentrations of each test compound were added to the cell in a cumulative manner starting with the lowest test concentration. Each cell served as its own control and data are presented as % reduction of current amplitude achieved in the presence of drug.
A nonlinear curve fitting routine was utilized to fit a three-parameter Hill equation to the results using MicroCal Origin, version 6.0 software. The equation was: […]

[2] = target: T2, human norepinephrine transporter (hNET) (Homo sapiens, UniProt P23975); assay: Binding affinity to human norepinephrine transporter (hNET), [3H]Nisoxetine displacement; details: membranes from MDCK cells expressing hNET, [3H]Nisoxetine 2 nM, read-out: NET binding, Ki
T2 construct: expressed in transfected cells; host or cells: MDCK cells
T2 sequence (P23975 whole entry): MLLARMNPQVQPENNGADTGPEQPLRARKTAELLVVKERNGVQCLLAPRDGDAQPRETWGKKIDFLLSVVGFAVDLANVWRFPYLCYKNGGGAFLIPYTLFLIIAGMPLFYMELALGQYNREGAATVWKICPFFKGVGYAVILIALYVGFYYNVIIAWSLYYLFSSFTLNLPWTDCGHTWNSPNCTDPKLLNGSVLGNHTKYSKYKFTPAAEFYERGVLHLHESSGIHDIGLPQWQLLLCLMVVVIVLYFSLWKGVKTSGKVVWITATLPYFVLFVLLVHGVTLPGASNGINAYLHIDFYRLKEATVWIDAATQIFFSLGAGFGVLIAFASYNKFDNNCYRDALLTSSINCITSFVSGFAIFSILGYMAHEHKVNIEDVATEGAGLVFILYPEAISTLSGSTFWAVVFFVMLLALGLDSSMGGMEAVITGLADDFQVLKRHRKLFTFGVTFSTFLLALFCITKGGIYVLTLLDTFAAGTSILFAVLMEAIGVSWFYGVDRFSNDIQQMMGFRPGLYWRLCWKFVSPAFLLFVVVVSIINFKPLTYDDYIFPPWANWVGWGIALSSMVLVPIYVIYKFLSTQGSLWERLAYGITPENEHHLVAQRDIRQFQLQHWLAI
Description: The binding affinities of certain compounds disclosed herein to the hNET were measured using competitive radioligand displacement assays in membranes prepared from MDCK cells that express the human norepinephrine transporter. Competition binding experiments were conducted by incubating hNET membranes with [^3H] Nisoxetine (2 nM), in the presence of increasing concentrations of test compounds. Incubations were carried out at 4° C. for 60 minutes in buffer containing 50 mM Tris HCl, 120 mM NaCl and 5 mM KCl (pH 7.4). The binding reaction was terminated by rapid filtration, membranes were washed and membrane-bound radioactivity was measured using a scintillation counter. Non-specific binding was measured in the presence of excess (10 μM) clomipramine as the unlabelled ligand and this value was subtracted from the total binding to yield the specific binding at each test compound concentration.
IC50 values were obtained from non-linear regression analysis of concentration-versus specific binding plots. Ki values were calculated from the IC50 values using the Cheng Prusoff correction and experimentally determined […] values for the radioligand under these assay conditions.

[3] = tested on: sodium channels (sodium current INa) in rat dorsal root ganglion (DRG) cells; assay: Sodium channel assay, whole-cell patch clamp of sodium current in isolated DRG cells; assay type: cell-based
Text: The effect of compounds disclosed herein on sodium channels may be evaluated in vitro to determine their blocking properties using the whole-cell patch clamp method in isolated cardiac (human atrial myocytes) and neuronal (rat dorsal root ganglion) cells. The example below refers to a sodium channel assay using neuronal cells.
Electrophysiologic patch clamp recordings of the sodium current in isolated rat dorsal root ganglion (DRG) cells were used to measure the sodium channel blocking properties of certain compounds disclosed herein. DRG cells were isolated according to the method of Blair and Bean (J Neurosci, 22: pp. 10277-10290, 2002) and plated on treated glass coverslips. For measuring the sodium current, cells were perfused with an external solution that consists of (in mmol/L): 115 TMA chloride, 10 NaCl, 5 CsCl, 1.8 CaCl2, 1.2 MgCl2, 10 HEPES, 11 dextrose, pH adjusted to 7.4 with TMA-OH. The chemical composition of the internal solution was (in mmol/L): 115 CsF, 20 CsCl, 10 NaF, 10 HEPES, 5 EGTA; pH adjusted to 7.2 with CsOH. Currents were measured using the whole-cell variant of the patch clamp method (Crumb & Clarkson, Biophysical Journal, 57(3): 589, 1990). An Axopatch 1-B amplifier (Axon Instruments, Foster City, Calif.) was used for whole-cell voltage clamping. Creation of voltage clamp pulses and data acquisition were controlled by a PC running pClamp software (version 9.2, Axon Instruments). INa was elicited by a 40 ms pulse to −20 mV from a holding potential of −65 mV. Pacing rates of 0.1 and 3 Hz were examined. […]. Four concentrations of each test compound were added to the cell in a cumulative manner starting with the lowest test concentration. Each cell served as its own control and data are presented as % reduction of current amplitude achieved in the presence of drug. A nonlinear curve fitting routine was utilized to fit a three-parameter Hill equation to the results using MicroCal Origin, version 6.0 software. The equation was: […]

| SMILES | IC50 ([1]; Table 2, pacing rate 0.1 Hz) [µM] | Ki ([2]; Table 2) [µM] | IC50 ([3]; Table 2, pacing rate 3 Hz) [µM] | IC50 ([1]; Table 1, pacing rate 0.1 Hz) [µM] | Ki ([2]; Table 1) [µM] | IC50 ([3]; Table 1, pacing rate 3 Hz) [µM] |
| --- | --- | --- | --- | --- | --- | --- |
| COCCOCCOCCOCCO[C@H]1Cc2ccccc2/C(=C\CCN(C)C)c2ccccc21 [(S)-5-(3-dimethylamino-propylidene)-10-OmPEG4-10,11-dihydro-5H-dibenzo[a,d]cyclohept-E-ene trifluoroacetate salt] | 24.8 | 12.6 | 39.4 |  |  |  |
| COCCOCCOCCOCCOCCOCCO[C@H]1Cc2ccccc2/C(=C\CCN(C)C)c2ccccc21 [(S)-5-(3-dimethylamino-propylidene)-10-OmPEG6-10,11-dihydro-5H-dibenzo[a,d]cyclohept-E-ene trifluoroacetate salt] | 36 | 14.2 | 8.5 |  |  |  |
| COCCOCCOCCOCCOCCOCCOCCOCCO[C@H]1Cc2ccccc2/C(=C\CCN(C)C)c2ccccc21 [(S)-5-(3-dimethylamino-propylidene)-10-OmPEG8-10,11-dihydro-5H-dibenzo[a,d]cyclohept-E-ene trifluoroacetate salt] | > 100 | 14 | 71.6 |  |  |  |
| CN(C)CC/C=C1/c2ccccc2CCc2cc(O)ccc21 [(Z)-5-(3-(dimethylamino)propylidene)-10,11-dihydro-5H-dibenzo[a,d][7]annulen-2-ol, reference compound] |  |  |  | 1.6 | 0.5 | 14.9 |
